Assay results: patent US20160115540A1, “PRODRUGS AND DRUGS” (Biogen MA Inc., priority 2013, published 2016)
Where a name gives a salt, the structure may show the parent alone.

Columns and labels:
spleen = test: Transcriptional profiling on Affymetrix GeneChips, single dose, naïve mice: spleen; format: in vivo, C57BL/6 mice; settings: for Number of differentially expressed genes identified: Spleen: Naïve, Single Dose
Method: (§1) Treated mice were sacrificed at 2, 7, or 12 hours. Tissues (liver, spleen, kidney, jejunum, cortex, hippocampus, striatum and whole blood) were collected and analyzed by transcriptional profiling on mouse Affymetrix GeneChips.
(§2) Tissues (liver, spleen, kidney, jejunum, cortex, hippocampus, striatum and whole blood) were collected and analyzed by transcriptional profiling on mouse Affymetrix GeneChips.
(§3) Animals were exposed to CO2 and whole blood collected via cardiac puncture. Two 100 μl aliquots of whole blood were collected in 1.5 mL microcentrifuge tubes and snap frozen in liquid nitrogen. Peripheral (liver, spleen, kidney and jejunum) and CNS brain (cerebellum, hippocampus, striatum and cortex) tissues were harvested and snap frozen in liquid nitrogen, with special care taken to collect tissues of similar size and from the same location. All samples were stored at −80° C. until RNA extraction was conducted.
(§4) For RNA preparation, frozen tissues were placed in 2 mL RNAse-free 96-well blocks with 1.5 mL QIAzol Lysis Reagent (QIAgen) and a 3.2 mm stainless steel bead (BioSpec Products, Bartlesville, Okla.). Tissues were disrupted for four cycles of 45 seconds in a Mini-Beadbeater (Biospec Products). RNA was extracted in chloroform and the aqueous phase was mixed with an equal volume of 70% ethanol. Extracted RNA was applied to RNeasy 96 plates and purified by the spin method according to the manufacturer's protocol (RNeasy 96 Universal Tissue Protocol, QIAgen, Hilden Germany).
(§5) Automated sample amplifications and biotin labelings were carried out using the NuGEN Ovation RNA Amplification system V2 (Cat #3100), Ovation WB reagent (Cat #1300) and Encore Biotin module (Cat #4200) (NuGEN Technologies, Inc, San Carlos, Calif.) according to manufacturer's recommendations using an Arrayplex automated liquid handler (Beckman Coulter, Indianapolis, Ind.). Two micrograms of biotin labeled sscDNA probe were hybridized to Affymetrix GeneChip Affymetrix HT_MG-430_PM plate arrays with modified conditions as described in Allaire et al. Washing and staining of the hybridized arrays were completed as described in the GeneChip Expression analysis technical manual for HT plate arrays using the Genechip® Array Station (Affymetrix, Santa Clara, Calif.) with modifications as described in Allaire et al. The processed GeneChip® plate arrays were scanned using GeneTitan scanner (Affymetrix, Santa Clara, Calif.).
(§6) Affymetrix scans were subject to quality control (QC) measures. These tests included a visual inspection of the distribution of raw signal intensities and an assessment of RNA degradation, relative log expression (RLE), and normalized unsealed standard error (NUSE). All sample scans that passed these QC metrics were included in the analysis.
(§7) All CEL files were subjected to GC-content-based Robust Multi-array Average (GCRMA) normalization (version 2.20.0) (Irizarry R A, et al. Nucleic Acids Res 2003; 31:e15; Li C, et al. Genome Biol 2001; 2:[…]0032). Expression levels were log (base 2) transformed.
(§8) All calculations and analyses were carried out using R (version 2.11.1) and Bioconductor computational tools (Gentleman R. Springer Science+Business Media 2005).

striatum = test: Transcriptional profiling on Affymetrix GeneChips, single dose, naïve mice: striatum; format: in vivo, C57BL/6 mice; settings: for Number of differentially expressed genes identified: Striatum: Naïve, Single Dose; for differentially expressed genes: 100DMF-vs-100MMF
Method: as §1, §2, §3, §4, §5, §6, §7, §8

[1] = 100 mpk DMF-vs-100 mpk MMF, 2 h after last dosing
[2] = 100 mpk DMF-vs-100 mpk MMF, 7 h after last dosing
[3] = 100 mpk DMF-vs-100 mpk MMF, 12 h after last dosing
[4] = 100 mpk, vs Vehicle, 2 h after last dosing
[5] = 100 mpk, vs Vehicle, 7 h after last dosing
[6] = 100 mpk, vs Vehicle, 12 h after last dosing

## COC(=O)/C=C/C(=O)OC [DMF, dimethyl fumarate]
spleen; [1]
  Number of differentially expressed genes identified: Spleen: 0
spleen; [2]
  Number of differentially expressed genes identified: Spleen: 0
spleen; [3]
  Number of differentially expressed genes identified: Spleen: 0
spleen; [4]
  Number of differentially expressed genes identified: Spleen: 13
spleen; [5]
  Number of differentially expressed genes identified: Spleen: 2
spleen; [6]
  Number of differentially expressed genes identified: Spleen: 0
spleen; SPLEEN, 100DMF-vs-100MMF, 2 h
  genes in differential expression gene list: None
spleen; SPLEEN, 100DMF-vs-100MMF, 7 h
  genes in differential expression gene list: None
spleen; SPLEEN, 100DMF-vs-100MMF, 12 h
  genes in differential expression gene list: None
spleen; SPLEEN, 100DMF-vs-Veh, 2 h, probe 1416497_PM_at
  FC Pdia4 (protein disulfide isomerase associated 4): −1.60
spleen; SPLEEN, 100DMF-vs-Veh, 2 h, probe 1419435_PM_at
  FC Aox1 (aldehyde oxidase 1): 2.61
spleen; SPLEEN, 100DMF-vs-Veh, 2 h, probe 1419942_PM_at
  FC Srxn1 (sulfiredoxin 1 homolog (S. cerevisiae)): 2.16
spleen; SPLEEN, 100DMF-vs-Veh, 2 h, probe 1421529_PM_a_at
  FC Txnrd1 (thioredoxin reductase 1): 1.55
spleen; SPLEEN, 100DMF-vs-Veh, 2 h, probe 1424022_PM_at
  FC Osgin1 (oxidative stress induced growth inhibitor 1): 1.78
spleen; SPLEEN, 100DMF-vs-Veh, 2 h, probe 1424296_PM_at
  FC Gclc (glutamate-cysteine ligase, catalytic subunit): 1.76
spleen; SPLEEN, 100DMF-vs-Veh, 2 h, probe 1424486_PM_a_at
  FC Txnrd1 (thioredoxin reductase 1): 2.41
spleen; SPLEEN, 100DMF-vs-Veh, 2 h, probe 1424487_PM_x_at
  FC Txnrd1 (thioredoxin reductase 1): 1.73
spleen; SPLEEN, 100DMF-vs-Veh, 2 h, probe 1426875_PM_s_at
  FC Srxn1 (sulfiredoxin 1 homolog (S. cerevisiae)): 2.02
spleen; SPLEEN, 100DMF-vs-Veh, 2 h, probe 1434797_PM_at
  FC Kirrel (kin of IRRE like (Drosophila)): −1.54
spleen; SPLEEN, 100DMF-vs-Veh, 2 h, probe 1443159_PM_at
  FC 9130221J17Rik (RIKEN cDNA 9130221J17 gene): 1.52
spleen; SPLEEN, 100DMF-vs-Veh, 2 h, probe 1448916_PM_at
  FC Mafg (v-maf musculoaponeurotic fibrosarcoma oncogene family, protein G (avian)): 1.58
spleen; SPLEEN, 100DMF-vs-Veh, 2 h, probe 1451680_PM_at
  FC Srxn1 (sulfiredoxin 1 homolog (S. cerevisiae)): 1.53
spleen; SPLEEN, 100DMF-vs-Veh, 7 h, probe 1419942_PM_at
  FC Srxn1 (sulfiredoxin 1 homolog (S. cerevisiae)): 1.67
spleen; SPLEEN, 100DMF-vs-Veh, 7 h, probe 1426875_PM_s_at
  FC Srxn1 (sulfiredoxin 1 homolog (S. cerevisiae)): 1.50
spleen; Spleen
  Number of genes, DMF Only / MMF Only: 2
spleen; spleen, 2 hr
  Aox1 (probe set 1419435_PM_at) differential expression: 2.61
  Gclc (probe set 1424296_PM_at) differential expression: 1.76
  Kirrel (probe set 1434797_PM_at) differential expression: −1.54
  Mafg (probe set 1448916_PM_at) differential expression: 1.58
  Osgin1 (probe set 1424022_PM_at) differential expression: 1.78
  Pdia4 (probe set 1416497_PM_at) differential expression: −1.60
  Srxn1 (probe set 1419942_PM_at) differential expression: 2.16
  Txnrd1 (probe set 1424486_PM_a_at) differential expression: 2.41
spleen; spleen, 7 hr
  Srxn1 (probe set 1419942_PM_at) differential expression: 1.67
spleen; spleen, 100DMF-vs-Veh, 12 h
  genes in differential expression gene list: None
striatum; [1]
  Number of differentially expressed genes identified: Striatum: 0
striatum; [2]
  Number of differentially expressed genes identified: Striatum: 0
striatum; [3]
  Number of differentially expressed genes identified: Striatum: 0
striatum; [4]
  Number of differentially expressed genes identified: Striatum: 4
striatum; [5]
  Number of differentially expressed genes identified: Striatum: 2
striatum; [6]
  Number of differentially expressed genes identified: Striatum: 2
striatum; Striatum
  Number of genes, DMF Only / MMF Only: 5
striatum; Striatum, 2 hr
  Gtpbp10 (1434030_PM_at) differential expression: −1.52
  Kdm3b (1428320_PM_at) differential expression: −1.54
  Mkln1 (1416734_PM_at) differential expression: −1.97
  Ptprg (1456070_PM_at) differential expression: −1.54
striatum; Striatum, 7 hr
  Aox1 (1419435_PM_at) differential expression: 1.64
striatum; Striatum, 12 hr
  Nfia (1438236_PM_at) differential expression: −1.53
  Zeb2 (1422748_PM_at) differential expression: −1.66
striatum; striatum, 2 h
  differentially expressed genes: None
striatum; striatum, 7 h
  differentially expressed genes: None
striatum; striatum, 12 h
  differentially expressed genes: None
striatum; striatum, 100DMF-vs-Veh, 2 h
  FC Gtpbp10 (1434030_PM_at): −1.52
  FC Kdm3b (1428320_PM_at): −1.54
  FC Mkln1 (1416734_PM_at): −1.97
  FC probe 1444791_PM_at: −1.60
striatum; striatum, 100DMF-vs-Veh, 7 h
  FC Aox1 (1419435_PM_at): 1.64
  FC probe 1443353_PM_at: −1.83
striatum; striatum, 100DMF-vs-Veh, 12 h
  FC Nfia (1438236_PM_at): −1.53
  FC Zeb2 (1422748_PM_at): −1.66
